Data as given in PubChem BioAssay (NCI).
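How tested: cells in 96-well plates exposed to compound for 48 hours at five concentrations. GI50 is the concentration that inhibits growth by half. TGI: concentration producing complete growth inhibition.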 Where a SMILES comes first, the peptide text is derived from it. The star is where a group is joined. Cbz = O=C(OCc1ccccc1)*

Legend:
Assay in all cases: NCI tumour cell line growth inhibition, 48 h
SF-295 CNS = tested on: SF-295 CNS
HL-60(TB) leukemia = tested on: HL-60(TB) leukemia
CAKI-1 renal = tested on: CAKI-1 renal
786-0 renal = tested on: 786-0 renal
OVCAR-5 ovarian = tested on: OVCAR-5 ovarian
RPMI-8226 leukemia = tested on: RPMI-8226 leukemia
MCF7 breast = tested on: MCF7 breast
PC-3 prostate = tested on: PC-3 prostate
MDA-MB-231 breast = tested on: MDA-MB-231 breast
RXF 393 renal = tested on: RXF 393 renal

Structure (SMILES)	TGI (SF-295 CNS) [µM]	TGI (HL-60(TB) leukemia) [µM]	TGI (CAKI-1 renal) [µM]	TGI (786-0 renal) [µM]	TGI (OVCAR-5 ovarian) [µM]	TGI (RPMI-8226 leukemia) [µM]	TGI (MCF7 breast) [µM]	TGI (PC-3 prostate) [µM]	TGI (MDA-MB-231 breast) [µM]	TGI (RXF 393 renal) [µM]	GI50 (SF-295 CNS) [µM]	GI50 (HL-60(TB) leukemia) [µM]	GI50 (CAKI-1 renal) [µM]	GI50 (RPMI-8226 leukemia) [µM]	GI50 (RXF 393 renal) [µM]	GI50 (PC-3 prostate) [µM]	GI50 (MDA-MB-231 breast) [µM]	GI50 (OVCAR-5 ovarian) [µM]	GI50 (MCF7 breast) [µM]
NC(=O)SCC(=O)Nc1ccc2ncccc2c1	> 100	> 100	> 100	67.6	> 100	76.9	> 100	> 100	> 100	–	–	–	–	–	–	–	–	–	–
Cc1ccc([N+](=O)[O-])cc1S(=O)(=O)Nc1ccc(C2=NN(S(=O)(=O)c3cc([N+](=O)[O-])ccc3C)C(c3ccco3)C2)cc1 (stereo not given)	> 100	98.2	> 100	> 100	> 100	> 100	> 100	> 100	–	> 100	–	–	–	–	–	–	–	–	–
COC1=CC(=O)NCCN1	> 100	41	> 100	> 100	> 100	–	–	–	–	> 100	–	–	–	–	–	–	–	–	–
O=P1(Oc2ccccc2)NCc2ncccc2O1 (stereo not given)	> 100	–	> 100	> 100	> 100	> 100	> 100	> 100	> 100	> 100	–	–	–	–	–	–	–	–	–
O=C1C=C2CC[C@H]3[C@@H]4CC[C@H](Oc5c6ccccc6nc6ccccc56)[C@H]4CC[C@@H]3[C@H]2CC1	> 100	47.4	> 100	> 100	> 100	–	–	> 100	> 100	91.5	–	–	–	–	–	–	–	–	–
O=C1CCCC2=C1CC1=C(CCCC1=O)N2c1cccc([N+](=O)[O-])c1	–	> 100	> 100	> 100	> 100	> 100	> 100	> 100	–	> 100	–	–	–	–	–	–	–	–	–
CCN(CC)CCNC(=O)c1nn(-c2ccc(Cl)cc2)c2c1CCc1cc(OC)ccc1-2	7.37	14.5	19.9	12	15	8.72	–	26.3	24.5	8.99	–	–	–	–	–	–	–	–	–
O=[N+]([O-])c1ccc(COc2cccc3cccnc23)cc1	> 100	22.3	75	90.6	> 100	39.2	–	–	–	> 100	–	–	–	–	–	–	–	–	–
O=C(c1ccccc1)c1nn(-c2ccccc2)c2nc3nc(-c4ccccc4)cc(=O)n3nc12	53	42.4	> 100	–	–	50.8	–	> 100	> 100	> 100	19.9	15.2	68	21.4	26	32.4	26.2	–	–
O=[N+]([O-])c1ccc(O)c(C=NCC2CCCN3CCCCC23)c1 (stereo not given)	> 100	–	> 100	> 100	> 100	–	> 100	> 100	> 100	59.7	–	–	–	–	–	–	–	–	–
CCN(CC)CC(=O)Nc1ccc2c(c1)C(=O)c1ccc(NC(=O)CN(CC)CC)cc1C2=O	> 100	44.5	> 100	47.2	> 100	> 100	–	–	–	29.7	–	–	–	–	–	–	–	–	–
CN=C(NC)N(C)c1nc(=[N+](C)C)ss1	> 100	> 100	98.3	> 100	> 100	–	–	–	–	> 100	–	–	–	–	–	–	–	–	–
O=C(CCc1ccc(O)cc1)NCCCNC(=O)CCc1ccc(O)cc1	> 100	–	> 100	> 100	> 100	> 100	> 100	> 100	> 100	> 100	–	–	–	–	–	–	–	–	–
C=CCN1C[C@@H](C)N([C@@H](c2ccc(C(=O)N(CC)CC)cc2)c2cccc(OC)c2)C[C@@H]1C	> 100	–	> 100	> 100	> 100	> 100	> 100	> 100	> 100	–	–	–	–	–	–	–	–	–	–
COc1ccc2c(c1)CCN1C3=C(CCC3)C(=O)C[C@@H]21	> 100	> 100	> 100	> 100	> 100	> 100	–	–	–	> 100	–	–	–	–	–	–	–	–	–
NC(C(=O)OC(=O)c1ccccc1)C(=O)OC(=O)c1ccccc1	> 100	–	> 100	> 100	> 100	> 100	> 100	> 100	> 100	> 100	–	–	–	–	–	–	–	–	–
CCCCc1c2c(nc3c1CC/C(=C\c1ccc([N+](=O)[O-])cc1)C3=O)CCCC2	4.07	–	–	2.77	–	5.69	–	–	–	2.63	–	–	–	–	–	–	–	–	–
Cc1cc(C)c(C(=O)/C=C/c2ccccc2)c(C)c1	48.8	> 100	> 100	81.6	–	90.5	–	–	–	34.5	–	–	–	–	–	–	–	–	–
CN(C)/C=C/c1c2c(nc3ccccc13)C(=O)c1ccccc1C2=O	2.88	–	6.31	5.51	8.45	3.49	–	3.77	4.26	9.83	–	–	–	–	–	–	–	–	–
Brc1ccc(-c2cc(-c3ccc4c(c3)OCO4)c(-c3cccs3)n2Cc2ccccc2)cc1	> 100	> 100	> 100	> 100	–	> 100	> 100	> 100	> 100	> 100	–	–	–	–	–	–	–	–	–
COc1cc(C(=O)OCCn2[nH]c(-c3ccc(Cl)cc3)nc2=S)cc(OC)c1OC	> 100	> 100	> 100	> 100	> 100	–	> 100	> 100	> 100	> 100	–	–	–	–	–	–	–	–	–
COc1cc2cc(C(=O)N3CC(CCl)c4c3cc(O)c3ccccc43)[nH]c2c(OC)c1OC (stereo not given)	–	< 0.005	–	0.506	0.549	> 50	–	–	–	< 0.005	–	–	–	–	–	–	–	–	–
CC(=O)OC(=C(C#N)C#N)c1nccnc1C(C)=O	> 20	> 20	> 20	> 20	> 20	–	> 20	> 20	> 20	15.7	–	–	–	–	–	–	–	–	–
Cc1nn(-c2ccccc2)c2nc3ccc(Cl)cc3c(-c3ccccc3)c12	> 100	–	–	> 100	> 100	> 100	> 100	> 100	> 100	–	–	–	–	–	–	–	–	–	–

Structure (SMILES)	TGI (SF-295 CNS) [µM]	TGI (HL-60(TB) leukemia) [µM]	TGI (CAKI-1 renal) [µM]	TGI (786-0 renal) [µM]	TGI (OVCAR-5 ovarian) [µM]	TGI (RPMI-8226 leukemia) [µM]	TGI (MCF7 breast) [µM]	TGI (PC-3 prostate) [µM]	TGI (MDA-MB-231 breast) [µM]	TGI (RXF 393 renal) [µM]	GI50 (SF-295 CNS) [µM]	GI50 (HL-60(TB) leukemia) [µM]	GI50 (CAKI-1 renal) [µM]	GI50 (RPMI-8226 leukemia) [µM]	GI50 (RXF 393 renal) [µM]	GI50 (PC-3 prostate) [µM]	GI50 (MDA-MB-231 breast) [µM]	GI50 (OVCAR-5 ovarian) [µM]	GI50 (MCF7 breast) [µM]
C/C(=C1\C(=O)C(c2ccccc2)N(c2ccccc2)C1=O)c1ccc(Cl)cc1 (stereo not given)	74.9	69.1	48.4	38.6	–	38.1	> 100	28.2	57.6	79.2	–	–	–	–	–	–	–	–	–
Cc1nc2ccccc2n1Cc1nnc2n1N=C(c1ccccc1)CS2	> 100	95.3	> 100	> 100	> 100	> 100	> 100	53.6	62.9	–	–	–	–	–	–	–	–	–	–
Cc1ccc(C)c(COCCOCn2c(=O)[nH]c(=O)c3cc(Br)ccc32)c1	> 100	> 100	> 100	> 100	> 100	–	> 100	> 100	> 100	> 100	–	–	–	–	–	–	–	–	–
NC(=O)C1CCCN1C(=O)N(CCCl)N=O (stereo not given)	> 100	> 100	> 100	> 100	> 100	> 100	> 100	> 100	> 100	–	–	–	–	–	–	–	–	–	–
Nc1[nH]c(=S)c2c(N)n[nH]c2c1C(=O)Nc1ccc(Cl)cc1	–	> 100	> 100	> 100	> 100	> 100	> 100	> 100	> 100	> 100	–	–	–	–	–	–	–	–	–
COC[C@@H](N=CN1CCc2cc(OC)c(OC)cc2C1)C(C)(C)C	> 100	> 100	> 100	> 100	–	> 100	–	–	–	> 100	–	–	–	–	–	–	–	–	–
COc1ccc(-c2nc3c(nc2-c2ccc(OC)cc2)N(C)S(=O)(=O)N=C3N)cc1	84.3	43.7	94.9	50.1	94.6	40.6	–	–	–	44.1	–	–	–	–	–	–	–	–	–
COc1cccc(C=C2N=C(C)N(n3c(-c4ccccc4)nc4ccccc4c3=O)C2=O)c1	> 100	> 100	> 100	> 100	–	> 100	> 100	> 100	> 100	–	–	–	–	–	–	–	–	–	–
COc1ccc(-c2cc(-c3ccccc3)nc3c2CC(=O)Nc2ccccc2-3)cc1OC	> 100	–	> 100	> 100	> 100	> 100	> 43.1	> 100	6.21	> 46.3	–	–	–	–	–	–	–	–	–
CCn1c(=O)c2c3cc(OC(C)=O)ccc3oc2c2ccc(OC(C)=O)cc21	72	–	> 100	> 100	–	–	> 100	> 100	> 100	> 100	–	–	–	–	–	–	–	–	–
NC(=S)N/N=C1\CCCCC1C(O)(C(F)(F)Cl)C(F)(F)Cl (stereo not given)	> 10	> 10	–	> 10	> 10	> 10	> 10	> 10	> 10	> 10	–	–	–	–	–	–	–	–	–
CCOC(=O)C1=C(C)NC(C)=C(C(=O)OCC)C1c1ccc(C)cc1	> 100	–	> 100	45.8	> 100	85.8	47.3	66	84.3	75.5	–	–	–	–	–	–	–	–	–
C[C@]12CCc3sc(-c4cccc(F)c4)nc3C1=CC[C@@H]1[C@@H]2CC[C@]2(C)C(=O)CC[C@@H]12	4.91	5.35	3.76	–	18.5	5.65	4.26	14.2	7.34	2.94	1.59	2	1.87	1.91	1.41	3.08	2.6	2.68	1.78
CCc1c(C)c2ccc(OCC(=O)N=Nc3c(O)[nH]c4ccccc34)c(C)c2oc1=O	–	–	> 33.3	–	> 33.3	2.27	> 33.3	–	–	–	–	–	> 33.3	0.936	–	–	–	> 33.3	0.992
COc1ccc(/C=C2\CN(C)CC3C2=NN(c2ccccc2)C3c2ccc(OC)cc2)cc1 (stereo not given)	> 100	–	> 100	> 100	> 100	> 100	> 100	–	–	48.2	–	–	–	–	–	–	–	–	–
CC(C)(SCc1ccccc1)C(N)C(=O)O (stereo not given)	> 100	> 100	> 100	> 100	> 100	> 100	–	> 100	> 100	> 100	–	–	–	–	–	–	–	–	–
CC(C)(O)CCc1ccc(O)c2c(=O)c3c(O)c4c(cc3oc12)O[C@H]1OC=C[C@@]41O	25.3	–	< 0.0318	> 64	8.74	> 33.6	< 0.01	> 35.1	> 100	1.44	–	–	–	–	–	–	–	–	–
CCOC(=O)CNC(=O)C(C)NC(=O)C(NC(=O)OCc1ccccc1)C(C)C (stereo not drawn) (Cbz-Val-Ala-Gly-OEt; configuration not given here)	> 100	–	> 100	> 100	> 100	> 100	> 100	> 100	–	> 100	–	–	–	–	–	–	–	–	–
O=C1C2CC=CCC2C(=O)N1n1c(Cc2ccccc2)n[nH]c1=O (stereo not given)	> 100	–	> 100	> 100	> 100	> 100	> 100	> 100	> 100	> 100	–	–	–	–	–	–	–	–	–
NC(=O)C1N=NSC1NC(=O)c1ccc([N+](=O)[O-])cc1 (stereo not given)	> 100	–	> 100	> 100	> 100	> 100	> 100	> 100	> 100	> 100	–	–	–	–	–	–	–	–	–
CC#CCCCC1(C)CCCNC1=S (stereo not given)	> 10	> 10	–	> 10	> 10	–	> 10	> 10	> 10	> 10	–	–	–	–	–	–	–	–	–
Cc1cc(=O)c2ccccc2n1CCCCCCCCCCn1c(C)cc(=O)c2ccccc21	–	15.1	36.1	30.4	> 100	–	–	> 100	> 100	72.3	–	–	–	–	–	–	–	–	–
Cc1ccc(S(=O)(=O)N2CCCSCCN(S(=O)(=O)c3ccc(C)cc3)CCCSCC2)cc1	> 100	> 100	–	> 100	> 100	> 100	> 100	–	> 100	> 100	–	–	–	–	–	–	–	–	–
